Experimental data reported in US20240246916A1, “7-NITRO-8-HYDROXYQUINOLINE DERIVATIVES, PREPARATION METHOD THEREFORE AND MEDICAL USE THEREOF” (Jiangsu Yahong Meditech Co., Ltd., priority 2021, published 2024).
≈ marks a conversion by molar mass, not a printed value.

How the values were obtained:
Format in all cases: cell-based
[1] = tested on: Acinetobacter baumannii (carbapenem-resistant clinical isolates; ATCC19606); test: MIC by micro broth dilution (CLSI), Acinetobacter baumannii; details: Acinetobacter baumannii; for MIC50 / MIC90: ATCC19606, Clinical strain; for MIC50: read-out: MIC50; for MIC90: read-out: MIC90; for MIC: Standard strain ATCC19606, read-out: MIC
In short: (§1)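 CLSI broth microdilution in cation-adjusted Mueller-Hinton broth, compounds in DMSO at 128 to 0.06 mg/L. Inoculum 10^5 CFU/mL from 0.5 McFarland suspensions diluted 100-fold; 35±2 °C, 20 h in air. Clinical isolates plus ATCC/NCTC quality-control strains; interpretation per CLSI 2019 M100.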

[2] = tested on: Escherichia coli (carbapenem-resistant clinical isolate; ATCC25922); test: MIC by micro broth dilution (CLSI), Escherichia coli; details: Escherichia coli; for MIC50 / MIC90: ATCC25922, Clinical strain; for MIC50: read-out: MIC50; for MIC90: read-out: MIC90; for MIC: Standard strain ATCC25922, read-out: MIC
In short: as §1

[3] = tested on: Prostate cancer cell line LNcaP; test: Inhibitory activity on cancer cells, CellTiter-Glo viability, LNcaP; details: Homo sapiens, 72 hours treatment
In short: (§2)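 HUVEC seeded at 2000, UM-UC-3 and RM-1 at 3000, LNCaP at 5000 cells/well, each in its own medium, 24 h before dosing. Compounds: 8-point 2.5-fold dilutions from 100 μmol, 72 h at 37 °C, 5% CO2. CellTiter-Glo luminescence; IC50 from growth-inhibition curves.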

[4] = tested on: Endothelial cell line HUVEC; test: Inhibitory activity on cells, CellTiter-Glo viability, HUVEC; details: Homo sapiens, 72 hours treatment
In short: as §2

[5] = tested on: Mouse prostate cancer cell line RM1; test: Inhibitory activity on cancer cells, CellTiter-Glo viability, RM1; details: 72 hours treatment
Protocol: HUVEC (purchased from Allcells Biological Technology (Shanghai) Co., Ltd.); UM-UC-3 (ATCC); LNCaP (ATCC); RM-1 (purchased from Nanjing Cobioer Biosciences Co., Ltd.) (1) On the first day, the cells were seeded in a 96-well plate, and the previous medium was poured off. 5 mL of DPBS was added to wash the cells, and then removed by a pipette and discarded. Then, 1 mL of trypsin (0.25%) was added, and the plate was placed in a cell culture incubator at 37 °C, 5% CO2 for digestion, and taken out after about 2 to 5 minutes. New corresponding medium was added, and pipetted to resuspend the cells evenly, and the cells were then counted with an automated cell counter. Regarding HUVEC, the medium used was endothelial cell complete medium; regarding UM-UC-3, the medium used was 89 v % EMEM+10 v % fetal bovine serum+1 v % penicillin-streptomycin double anti-body; regarding LNcaP, the medium used was 89 v % RPM11640+10 v % fetal bovine serum+1 v % penicillin-streptomycin double anti-body; and regarding RM1, the medium used was 89 v % DMEM+10 v % fetal bovine serum+1 v % penicillin-streptomycin double anti-body. (2) HUVEC cells were seeded in columns 1 to 11 of a 96-well plate (Corning, Cat. No. 3610) at a density of 2000 cells per well in 100 μL of medium, and the medium free of cell was added to the wells of column 12. The other three types of cells were also seeded, wherein UM-UC-3 and RM-1 cells were seeded at a density of 3000 cells per well, and LNCap cells were seeded at a density of 5000 cells per well. Then, the plate was placed in an incubator at 37° C., 5% CO2 for 24 hours. (3) On the second day, the compounds of the present invention and the reference drug nitroxoline (obtained according to the preparation method disclosed in the prior art) were diluted in gradient (2.5 folds, started at 100 μmol) to obtain 8 dose points (there were a total of 8 columns of wells; the first column of wells had the highest concentration, the concentration decreased in turn, and the last column of wells had the lowest concentration). 10 μL of the compound diluted in gradient was added to the 100 μL of cells in column 1 to column 10 with an 8-channel pipette. 10 μL of the corresponding medium containing 0.33 v % DMSO was added to column 11 and column 12. The plate was incubated in an incubator at 37° C., 5% CO2 for 72 hours (note: column 11 was used as MAX well with cells and no compounds; and column 12 was used as MIN well with no cells and no compounds). (4) After treating with the compounds of the present invention for 72 hours, the cell viability detection reagents in the above CellTiter-Glo® assay kit were added to the 96-well plate at 50 μL per well according to the instructions. The plate was shaken on a shaker in the dark for 5 to 10 minutes, and then the cell activity was determined by a multifunctional microplate reader. Finally, the growth inhibition of the compounds of the present invention on the cells was plotted by XLFIT 5.3 software, and the IC50 values of the compounds of the present invention were calculated.

[6] = tested on: Bladder cancer cell line UM-UC-3; test: Inhibitory activity on cancer cells, CellTiter-Glo viability, UM-UC-3; details: Homo sapiens, UMUC3, 72 hours treatment
In short: as §2

[7] = tested on: Staphylococcus aureus (methicillin-resistant and sensitive clinical isolates; ATCC29213); test: MIC by micro broth dilution (CLSI), Staphylococcus aureus; details: for MIC50 / MIC90: Clinical strain; for MIC50: read-out: MIC50; for MIC90: read-out: MIC90; for MIC: Standard strain ATCC29213, read-out: MIC
In short: as §1

Structure (SMILES)	MIC50 [1] [µg/mL]	MIC90 [1] [µg/mL]	MIC [1] [µg/mL]	MIC50 [2] [µg/mL]	MIC90 [2] [µg/mL]	MIC [2] [µg/mL]	IC50 [3] [µM]	IC50 [4] [µM]	IC50 [5] [µM]	IC50 [6] [µM]	MIC50 [7] [µg/mL]	MIC90 [7] [µg/mL]	MIC [7] [µg/mL]
O=[N+]([O-])c1cc(Cl)c2c(OCCF)ccnc2c1O [Example 43, 5-Chloro-4-(2-fluoroethoxy)-7-nitroquinolin-8-ol]	128 (≈ 447 µM)	128 (≈ 447 µM)	128 (≈ 447 µM)	128 (≈ 447 µM)	128 (≈ 447 µM)	128 (≈ 447 µM)	6.26	7.54	10.6	12.3	8 (≈ 27.9 µM)	8 (≈ 27.9 µM)	8 (≈ 27.9 µM)
CNC(=O)N1CCN(c2ccnc3c(O)c([N+](=O)[O-])cc(Cl)c23)CC1 [Example 44, 4-(5-Chloro-8-hydroxy-7-nitroquinolin-4-yl)-N-methylpiperazine-1-carboxamide]	> 128	> 128	> 128	> 128	> 128	> 128	> 50	> 50	> 50	> 50	32 (≈ 87.5 µM)	32 (≈ 87.5 µM)	32 (≈ 87.5 µM)
CC(C)(C)C(=O)N1CCN(c2ccnc3c(O)c([N+](=O)[O-])cc(Cl)c23)CC1 [Example 45, 4-(5-Chloro-8-hydroxy-7-nitroquinolin-4-yl)-1-(2,2,2-trimethylacetyl)piperazine]	> 128	> 128	> 128	> 128	> 128	> 128	5.43	10.1	12.1	23.6	> 128	> 128	> 128
CCOC(=O)C1CCN(c2ccnc3c(O)c([N+](=O)[O-])cc(Cl)c23)CC1 [Example 46, Ethyl 1-(5-chloro-8-hydroxy-7-nitroquinolin-4-yl)piperidine-4-carboxylate]	> 128	> 128	> 128	> 128	> 128	> 128	0.88	0.56	1.86	0.96	32 (≈ 84.3 µM)	64 (≈ 169 µM)	32 (≈ 84.3 µM)
O=[N+]([O-])c1cc(Cl)c2c(Oc3ccccc3)ccnc2c1O [Example 47, 5-Chloro-7-nitro-4-phenoxyquinolin-8-ol]	> 128	> 128	> 128	> 128	> 128	> 128	0.97	1.59	6.07	2.38	16 (≈ 50.5 µM)	32 (≈ 101 µM)	32 (≈ 101 µM)
CS(=O)(=O)N1CCN(c2ccnc3c(O)c([N+](=O)[O-])cc(Cl)c23)CC1 [Example 48, 5-Chloro-4-(4-(methylsulfonyl)piperazin-1-yl)-7-nitroquinolin-8-ol]	> 128	> 128	> 128	> 128	> 128	> 128	10.6	6.58	14.4	10.6	64 (≈ 165 µM)	64 (≈ 165 µM)	64 (≈ 165 µM)
CC(C)C(=O)N1CCN(c2ccnc3c(O)c([N+](=O)[O-])cc(Cl)c23)CC1 [Example 50, 4-(5-Chloro-8-hydroxy-7-nitroquinolin-4-yl)-1-(2,2-dimethylacetyl)piperazine]	> 128	> 128	> 128	> 128	> 128	> 128	2.86	2.94	4.29	3.4	> 128	> 128	> 128
Cl.O=[N+]([O-])c1cc(Cl)c2c(-c3ccccc3)ccnc2c1O [Example 51, 5-chloro-7-nitro-4-phenylquinolin-8-ol hydrochloride]	> 128	> 128	> 128	> 128	> 128	> 128	1.51	1.71	4.25	2.17	1	2	1
CCOC(=O)N1CCN(c2ccnc3c(O)c([N+](=O)[O-])cc(Cl)c23)CC1 [Example 52, Ethyl 4-(5-chloro-8-hydroxy-7-nitroquinolin-4-yl)piperazine-1-carboxylate]	> 128	> 128	> 128	> 128	> 128	> 128	0.58	0.53	1.42	4.71	64 (≈ 168 µM)	128 (≈ 336 µM)	128 (≈ 336 µM)
O=[N+]([O-])c1cc(Cl)c2c(OCC3CC3)ccnc2c1O [Example 53, 5-Chloro-4-(cyclopropylmethoxy)-7-nitroquinolin-8-ol]	128 (≈ 434 µM)	128 (≈ 434 µM)	128 (≈ 434 µM)	128 (≈ 434 µM)	128 (≈ 434 µM)	128 (≈ 434 µM)	1.08	0.59	3.06	0.86	8 (≈ 27.1 µM)	16 (≈ 54.3 µM)	16 (≈ 54.3 µM)
COCCCOC1CCN(c2ccnc3c(O)c([N+](=O)[O-])cc(Cl)c23)CC1.Cl.Cl [Example 54, 5-chloro-4-(4-(3-methoxypropoxy)piperidin-1-yl)-7-nitroquinolin-8-ol dihydrochloride]	128	> 128	64	32	64	64	0.25	0.5	1.62	1.42	16	16	16
O=[N+]([O-])c1cc(Cl)c2c(N3CCC(F)(F)CC3)ccnc2c1O [Example 55, 5-Chloro-4-(4,4-difluoropiperidin-1-yl)-7-nitroquinolin-8-ol]	> 128	> 128	> 128	> 128	> 128	> 128	0.25	0.8	2.88	2.23	4 (≈ 11.6 µM)	4 (≈ 11.6 µM)	4 (≈ 11.6 µM)
O=C1CCN(c2ccnc3c(O)c([N+](=O)[O-])cc(Cl)c23)CC1 [Example 56, 1-(5-Chloro-8-hydroxy-7-nitroquinolin-4-yl)piperidin-4-one]	> 128	> 128	> 128	> 128	> 128	> 128	47.6	32.1	68.5	52.8	64 (≈ 199 µM)	64 (≈ 199 µM)	128 (≈ 398 µM)
